Laboratory results reported in US20250171462A1 (NICO Therapeutics, Inc., priority 2022, published 2025).
Like-named read-outs stand apart in the source and are kept apart here.

Biological target: T1, full-length SARM1 (FL-SARM1) (Homo sapiens, UniProt Q6SZW1)
T1 sequence (Q6SZW1 28-724): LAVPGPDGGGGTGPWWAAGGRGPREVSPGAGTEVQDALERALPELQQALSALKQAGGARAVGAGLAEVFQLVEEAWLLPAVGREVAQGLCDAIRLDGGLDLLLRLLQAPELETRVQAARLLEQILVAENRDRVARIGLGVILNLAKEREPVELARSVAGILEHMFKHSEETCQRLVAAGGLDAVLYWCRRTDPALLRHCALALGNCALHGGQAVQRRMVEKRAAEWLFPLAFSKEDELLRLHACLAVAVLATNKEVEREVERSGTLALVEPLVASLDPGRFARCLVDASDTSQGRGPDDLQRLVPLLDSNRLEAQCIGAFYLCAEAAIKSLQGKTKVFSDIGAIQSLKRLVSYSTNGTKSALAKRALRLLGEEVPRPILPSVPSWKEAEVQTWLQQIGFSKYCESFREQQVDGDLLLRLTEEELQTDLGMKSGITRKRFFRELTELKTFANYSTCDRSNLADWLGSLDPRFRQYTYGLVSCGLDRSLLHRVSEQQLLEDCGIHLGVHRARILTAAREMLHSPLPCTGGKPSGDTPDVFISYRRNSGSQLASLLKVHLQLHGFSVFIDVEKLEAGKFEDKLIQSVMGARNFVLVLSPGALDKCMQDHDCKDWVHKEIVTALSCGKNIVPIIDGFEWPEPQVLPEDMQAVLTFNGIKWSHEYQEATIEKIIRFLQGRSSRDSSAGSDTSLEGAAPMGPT
Experiment: FL-SARM1 cellular lysate assay (NAD/NADH-Glo detection of remaining NAD+, NMN-activated)

[1] = Activity (IC50 class), 11 point curve
[2] = Activity (μM) (IC50), 11 point curve
[3] = read-out: Activity (IC50 class), 11 point curve

| SMILES | IC50 [1] [µM] | IC50 [2] [µM] | IC50 [3] [µM] |
| --- | --- | --- | --- |
| Cc1ccc(NC(=O)C2[C@@H]3CC[C@@]2(c2ccnn2C)C3)cc1-c1ncc(F)cn1 (single isomer, unassigned) [Example 203, N-[3-(5-fluoropyrimidin-2-yl)-4-methylphenyl]-1-(2-methylpyrazol-3-yl)bicyclo[2.1.1]hexane-5-carboxamide] | > 10 | > 50 | – |
| Cc1ccc(NC(=O)C2C3CC(C3)N2c2ccccn2)cc1-c1ncc(F)cn1 (stereo not shown) [Example 271, N-(3-(5-fluoropyrimidin-2-yl)-4-methylphenyl)-2-(pyridin-2-yl)-2-azabicyclo[2.1.1]hexane-3-carboxamide] | > 10 | 17 | – |
| Cc1ccc(NC(=O)[C@H]2C[C@@H](OC(F)(F)F)C2)cc1-c1ccccn1 [Example 136, cis-N-(4-methyl-3-pyridin-2-ylphenyl)-3-(trifluoromethoxy)cyclobutane-1-carboxamide] | 1 to 10 | 6.4 | – |
| CCOC(C)[C@@]12CC(C[C@@H](C)C1)N2C(=O)Nc1ccc(C)c(-c2ncc(F)cn2)c1 (single isomer, unassigned) [Example 186] | – | 0.2 | 0.0001 to 1 |
| Cc1ccc(NC(=O)[C@@H]2CO[C@H](C(F)(F)F)CN2c2ccccn2)cc1-c1ncc(F)cn1 (racemic) [Example 272, cis-N-(3-(5-fluoropyrimidin-2-yl)-4-methylphenyl)-4-(pyridin-2-yl)-6-(trifluoromethyl) morpholine-3-carboxamide] | 1 to 10 | 1.1 | – |
| Cc1c(F)cc(NC(=O)N2C3CCCC2C3)cc1-c1ccccn1 [Example 69, N-(3-fluoro-4-methyl-5-(pyridin-2-yl)phenyl)-6-azabicyclo[3.1.1]heptane-6-carboxamide] | – | 0.08 | 0.0001 to 1 |
| Cc1ccc(NC(=O)CC2CCC2)cc1-c1ncccc1F [Example 165, 2-cyclobutyl-N-[3-(3-fluoropyridin-2-yl)-4-methylphenyl]acetamide] | 1 to 10 | 5.3 | – |
| Cc1ccc(NC(=O)N2CCCC2C2CC2)cc1-c1ccccn1 (racemic) [Example 92, 2-cyclopropyl-N-(4-methyl-3-pyridin-2-ylphenyl)pyrrolidine-1-carboxamide] | 1 to 10 | 2.3 | – |
| Cc1ccc(NC(=O)[C@@H]2C[C@@H]2c2ccccc2)cc1-c1cccnn1 [Example 299, (1R,2S)-N-(4-methyl-3-pyridazin-3-ylphenyl)-2-phenylcyclopropane-1-carboxamide] | > 10 | 14 | – |
| Cc1ccc(NC(=O)N2[C@@H]3C[C@@H](F)C[C@H]2C3)cc1-c1ccccn1 [Example 27, cis-3-fluoro-N-(4-methyl-3-(pyridin-2-yl)phenyl)-6-azabicyclo[3.1.1]heptane-6-carboxamide] | – | 0.1 | 0.0001 to 1 |
| Cc1ccc(NC(=O)N2CC3CC2Cc2ccccc23)cc1-c1ccccn1 (stereo not shown) [Example 21, N-(4-methyl-3-(pyridin-2-yl)phenyl)-4,5-dihydro-1H-1,4-methanobenzo[d]azepine-3(2H)-carboxamide] | 1 to 10 | 2.5 | – |
| Cc1ccc(NC(=O)[C@H]2C[C@@H](C(F)(F)F)CN2c2ncccn2)cc1-c1cccnn1 [Example 294, (2R,4R)-N-(4-methyl-3-pyridazin-3-ylphenyl)-1-pyrimidin-2-yl-4-(trifluoromethyl) pyrrolidine-2-carboxamide] | 1 to 10 | 9.4 | – |
| Cc1nnc(CN2[C@@H](C(=O)Nc3ccc(C)c(-c4ncc(F)cn4)c3)C[C@H]3C[C@H]32)o1 [Example 171, (1R,3R,5R)—N-(3-(5-fluoropyrimidin-2-yl)-4-methylphenyl)-2-((5-methyl-1,3,4-oxadiazol-2-yl)methyl)-2-azabicyclo[3.1.0]hexane-3-carboxamide] | > 10 | 18 | – |
| Cc1ccc(NC(=O)N2CCOCCC2C)cc1-c1ncc(F)cn1 (racemic) [Example 225, N-[3-(5-fluoropyrimidin-2-yl)-4-methylphenyl]-5-methyl-1,4-oxazepane-4-carboxamide] | > 10 | 32 | – |
